Values quoted from earlier work as cited in patent EP1482795B1, “NEW IMMU[…]” (CORIXA CORPORATION, priority 2002, dated 2003).

For “Monophosphoryl lipid A [MPL® immunostimulant]”, the “doses that can be safely administered to humans” value is given as “at least 20 µg/kg” and the “dose levels at which increases in temperature, flu-like symptoms, increasing heart rate and modest decreases in blood pressure can occur” value (humans, some patients) is given as ≥ 0.01 mg/kg.
